Test results reported in US8575352B2, “Benzyl sulfonamide derivatives useful as MOGAT-2 inhibitors” (Eli Lilly and Company, priority 2012, dated 2013).
Where a name gives a salt, the structure may show the parent alone.

Columns and labels:
human MOGAT-2 [1] = molecular target: T1, human MOGAT-2 (Homo sapiens, UniProt Q3SYC2); experiment: Inhibitory Activity in MOGAT-2 Cell Assay (Caco-2 cells stably transfected with human MOGAT-2, HDG substrate, LC-MS); assay type: cell-based; parameters: expressed in transfected cells; settings: Caco-2 cells expressing human MOGAT-2, HDG/DOPC, 4 hours; read-out: IC50 nM (Std Dev., n*)
T1 sequence (Q3SYC2 whole entry): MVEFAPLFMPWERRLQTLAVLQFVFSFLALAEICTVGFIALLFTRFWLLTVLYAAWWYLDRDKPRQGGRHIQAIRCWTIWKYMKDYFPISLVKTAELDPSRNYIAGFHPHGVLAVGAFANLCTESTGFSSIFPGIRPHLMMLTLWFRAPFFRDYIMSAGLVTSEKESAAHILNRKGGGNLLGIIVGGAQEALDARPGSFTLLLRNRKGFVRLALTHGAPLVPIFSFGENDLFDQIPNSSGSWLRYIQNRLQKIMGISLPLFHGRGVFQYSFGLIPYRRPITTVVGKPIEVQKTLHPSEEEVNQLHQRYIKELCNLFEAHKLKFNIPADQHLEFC
Experimental: The inhibitory activity of compounds against human MOGAT-2 in a cell environment is evaluated in this assay. Caco-2 is a human colon carcinoma cell line and is often used as a model for intestinal epithelial cells. […] A MAG analogue, 2-O-Hexadecylglycerol (HDG), is utilized to detect cellular MOGAT-2 activity, because HDG is not hydrolyzed and the resulting product is readily monitored by mass spectrometry. The substrate is delivered to cells using as a mixture with DOPC in the form of sonicated vesicles.
Seed the Caco2 cells onto 100 mm dishes to be 80% confluent after 24 hours in complete media (3/1 DMEM: F12+10% FBS+20 mM HEPES+gentamicin). Transfect the cells with hMOGAT-2 plasmid (MOGAT-2-pcDNA3.1-Hygro) using Lipofectamine 2000 (Invitrogen). After a 6 hour exposure to the transfection mixture, wash the cells three times in PBS and then add media. Incubate the cells for an additional 18 hours incubation, trypsinize the cells and serially dilute them into 100 mm dishes. Add complete media+400 μg/ml hygromycin and incubate until clones appear. Isolate and transfer the clones into 24 well dishes and grow to confluency. Prepare the RNAs from these clones using a Qiagen RNAeasy kit. Perform Taqman analysis using an ABI inventoried assay (HS00228262) on a 7900 Sequence Detection System (ABI). Analyze the lysates from these clones by Western blot analysis using a goat polyclonal antibody (Santa Cruz, SC-32392 to confirm human MOGAT-2 expression of a 38 kD protein corresponding to MOGAT-2.
Mix 2-O-hexadecylglycerol (“HDG”, Biosynth Chemistry & Biology, #H-1806, 562.7 μl of 20 mg/ml) and DOPC (14.3 ml of 20 mg/ml) in chloroform in a glass tube; dry first under N2 gas; and then under reduced pressure for additional 30 minutes. Add 20 ml of buffer (150 mM Tris-Cl pH 7.4, 250 mM sucrose, 1 mM EDTA) to the dried HDG/DOPC mixture while sonicating until the solution becomes clear. Plate the Caco2 cells into a poly-D-lysine coated 96-well plate (the “Cell Plate”) at 37° C., 5% CO2 overnight. Remove the growth media and pretreat the cells with the test compound in DMEMF12 (3:1) media (GIBCO 93-0152DK) containing 2% BSA (Sigma) for 30 minutes. Treat the cells with one test compound in 2% BSA DMEMF12 (3:1) media containing 40 μM of oleic acid and 800 μM of 8.9:91.9 (molar ratio) HDG/DOPC for 4 hours. Trypsinize the cells with 50 μl of trypsin solution and add 50 μl of PBS. Immediately freeze the cells on dry ice and store at −20° C. for LC-MS analysis. Extract the cells with chloroform/methanol as follows: transfer the cells to a 2 ml plate; wash the cell plate with 200 μL methanol and then transfer the methanol wash to the 2 ml plate; wash the cell plate again with 200 μL PBS and transfer the PBS wash to the 2 ml plate. Add chloroform (400 μL) with internal standard (19.52 ng/mL) DAG (15:0, 15:0 (Sigma)), D5-TAG (39.03 ng/mL) CDN (16, 16, 16) to the 2 mL Plate. Turn the sealed 2 mL Plate up and down (10×), then vortex and spin. Remove 400 μL of the lower layer from the 2 mL plate and add to the wells of another plate the “Final Plate”. Add CHCl3:MeOH (400 μL 2:1) to the 2 mL Plate. Again turn the sealed 2 mL Plate up and down (10×), vortex and spin. Remove 220 μL of the lower layer from the 2 mL Plate and add to the Final Plate. Dry the Final Plate and reconstitute with […] of IPA. Seal the Final Plate and shake for 5 min. […]

[2] = tested on: plasma triglyceride (TAG) secretion from the intestine; experiment: Dog Oil Bolus Model (plasma triglyceride after olive oil bolus); assay type: in vivo, dog (male beagles); settings: olive oil bolus 5 ml/kg; for reduction of 18:1 TAG (plasma TAG 18:1 18:1 18:1 net AUC): 18:1 TAG by LC/MS/MS
Source text: Inhibiting MOGAT-2 found in the small intestine may be useful for treating hypertriglyceridemia caused by excessive fat intake Inhibition of MOGAT-2 disrupts resynthesis of triglycerides, which reduces secretion of triglycerides from the intestine. Therefore, MOGAT-2 inhibition interferes with a specific process that leads to eventual secretion of triglycerides into the intestine for eventual circulation through the body. To assess the ability of one or more of the exemplified compounds to inhibit MOGAT-2 induced TAG secretion into the intestine as measured in the blood system, the following protocol can be followed.
Twenty one male beagles (n=7 per treatment group) are enrolled for each study, each dog selected to have a body weight between 9-13 kg. House the dogs in cages with a standard light cycle (12 hours light and 12 hours dark); at room temperature: 72±8° F.; and at 30%-70% relative humidity. Fast the dogs for 16 hours prior to the start of the study, then dose the fasted dogs with vehicle (1% HEC, 0.25%, Tween 80, Antifoam) or one of the test compounds in that vehicle. Bleed the dogs one hour after dosing, (0.5 ml from the jugular vein) for a time 0 sample. Dose the dogs with olive oil (Sigma Catalog#: O-1514, 5 ml/kg) immediately after collection of the time 0 sample. Collect samples into an EDTA tube on ice at 1.5, 2, 3, 5, 7, and 9 hrs post compound/vehicle dosing. Centrifuge the samples at […] for 15 min and analyze (Roche Cat no. 1877771) for plasma total triglyceride using a Roche Hitachi 917. For plasma TAG 18.1—18.1—18.1 measurement, extract the samples and perform LC/MS/MS analysis similarly to that described above in MOGAT-2 Cell Assay using 10 μL of plasma/.
The analyte is the [M+NH4]+ ion of TAG 18:1 18:1 18:1, which has a mass of 902.8 m/z; the internal standard is D5 TAG 16:0 16:0 16:0, which has a mass of 829.8 m/z. Report the ratio of the 603.5 m/z daughter ion of 902.8 m/z (TAG 18:1 18:1 18:1) and the 556.5 m/z daughter ion of 829.8 m/z (D5 TAG 16:0 16:0 16:0 internal standard) changes in TAG 18:1 18:1 18:1 relative amount. Calculate the net plasma TAG AUC from total TAG AUC minus baseline TAG AUC using Graphpad Prism4: (Net AUCTAG=AUCTAG post oil bolus−AUCTAG at 0 hour). The percent inhibition of plasma triglyceride is calculated as follows: the (oil bolus group mean of net TAG AUC−oil bolus group mean of net TAG AUC with compound treatment/oil bolus group mean of net TAG AUC)*100. The final statistic analysis uses Dunnett's method of One way Anova for comparison with the control. All Net TAG AUC values are transformed to ranked averaged AUC for comparison to limit the variability within the studies.

human MOGAT-2 [3] = molecular target: T1, human MOGAT-2; experiment: MOGAT-2 Inhibitory Assay (in vitro, SF9 cell lysate, 14C-oleoyl-CoA, Microscint extraction); assay type: biochemical; parameters: made in house; host or cells: insect SF9 cells (crude lysate supernatant); settings: SF9 cell extract expressing human MOGAT-2, 90 min, room temperature
Experimental: The in vitro inhibitory activity of compounds against human MOGAT-2 is evaluated in this assay. MOGAT-2 transfers an oleoyl group to monooleoyl-glycerol (“MAG”) from oleoyl-CoA to form dioleoyl-glycerol (“DAG”) in the intestinal triglyceride resynthesis pathway. The assay takes advantage of Microscint Extraction, which extracts hydrophobic molecules selectively over hydrophilic ones to separate the ^14C-oleoyl-CoA from ^14C-DAG.
Genetically engineered insect SF9 cells express human MOGAT-2. Prepare the cell lysate in 20 mM of NaCl with protease inhibitor (Roche Cat #11873580001). Homogenize the SF9 cells expressing human MOGAT-2 at 15,000 rpm for 20×2 seconds (PT-3100 Polytrone). Centrifuge the homogenate at 1000 g for 10 minutes at 4° C. Collect the supernatant into a separate tube for protein quantification and activity testing. Purify the glycerol monooleate substrate (Spectrum Chemical, CAS#25496-72-4) chromatographically. Prepare the monoacylglyerol (MAG) substrate in phospholipid vescicles (dioleoyl phosphatidylcholine “DOPC”). Prepare the MAG/DOPC vesicles at 20 mM concentration of total lipids (MAG and DOPC). Prepare different molar ratios of MAG to total lipids for either compound screening (8.9%) or compound kinetic studies (2.6-40%). Mix the appropriate amount of purified MAG and DOPC (Avanti Polar Lipids #850375C) in chloroform in a glass tube. […]

Row | Structure (SMILES) | IC50 (human MOGAT-2 [1]) | reduction of 18:1 TAG (plasma TAG 18:1 18:1 18:1 net AUC) ([2]; 30 mg/kg) | reduction of TAG secretion (percent inhibition of plasma total triglyceride net AUC) ([2]; 30 mg/kg, total TAG) | reduction of 18:1 TAG (plasma TAG 18:1 18:1 18:1 net AUC) ([2]; 60 mg/kg) | reduction of TAG secretion/absorption (percent inhibition of plasma total triglyceride net AUC) ([2]; 60 mg/kg, total TAG) | IC50 (human MOGAT-2 [3])
1 | C[C@H](CNCc1ccc([C@H](NS(C)(=O)=O)C(F)(F)F)cc1)Oc1ccccn1 [Example 3, N-{(1S)-2,2,2-Trifluoro-1-[4-({[(2R)-2-(pyridin-2-yloxy)propyl]amino}-methyl)phenyl]ethyl}-methanesulfonamide hydrochloride] | 14.4 nM |  |  |  |  | 
2 | CS(=O)(=O)N[C@@H](c1ccc(CNCCOc2ccc(F)cn2)cc1)C(F)(F)F [Example 17, N-[(1S)-2,2,2-Trifluoro-1-{4-[({2-[(5-fluoropyridin-2-yl)oxy]ethyl}amino)-methyl]phenyl}ethyl]-methanesulfonamide hydrochloride] | 45.5 nM |  |  |  |  | 
3 | COC[C@H](CNCc1ccc([C@H](NS(C)(=O)=O)C(F)(F)F)cc1)Oc1ccc(F)cn1.Cl [Example 1, N-[(1S)-2,2,2-Trifluoro-1-{4-[({(2S)-2-[(5-fluoropyridin-2-yl)oxy]-3-methoxypropyl}amino)methyl]phenyl}ethyl]methanesulfonamide hydrochloride] | 30.6 nM | 64% | 61% | 76% | 77% | 2 nM
4 | C[C@H](CNCc1ccc([C@H](NS(C)(=O)=O)C(F)(F)F)cc1)Oc1ccc(F)cn1.Cl [Example 36, N-[(1S)-2,2,2-Trifluoro-1-{4-[({(2r)-2-[(5-fluoropyridin-2-yl)oxy]propyl}amino)methyl]phenyl}ethyl]-methanesulfonamide hydrochloride] | 36.1 nM |  |  | 43% | 38% | 
5 | COC[C@H](CNCc1ccc([C@H](NS(C)(=O)=O)C(F)(F)F)cc1)Oc1ccccn1 [Example 5, N-{(1S)-2,2,2-Trifluoro-1-[4-({[(2S)-3-methoxy-2-(pyridin-2-yloxy)propyl]amino}-methyl)phenyl]ethyl}-methanesulfonamide hydrochloride (1:1)] | 44.6 nM |  |  |  |  | 
